In article PMC11110727, “Exploiting thiol-functionalized benzosiloxaboroles for achieving diverse substitution patterns – synthesis, characterization and biological evaluation of promising antibacterial agents” (RSC Medicinal Chemistry, 2024):
Values after ≈ are worked out from the molar mass of the structure shown.

Key:
[1] = tested on: Human normal lung fibroblasts MRC-5; test: MTT-based viability (cytotoxicity) assay; settings: MRC-5, MTT, 48 h
Experimental: To evaluate the cytotoxic effect of the tested compounds, an MTT-based assay was performed. […] Moreover, based on available IC50 and MIC (for standard and clinical S. aureus MRSA strains) values, the selectivity index (SI) was calculated for several compounds as the IC50/MIC ratio (Table 5).[60]
MRC-5 pd30 human fibroblasts (ECACC) were cultured in MEME, Minimum Essential Medium Eagle (Merck), supplemented with 10% fetal bovine serum (Merck), 2 mM L-glutamine, antibiotics (100 U mL^−1 penicillin, 100 μg mL^−1 streptomycin, Merck) and 1% non-essential amino acids (Merck). Cells were grown in 75 cm^2 cell culture flasks (Sarstedt), in a humidified atmosphere of CO2/air (5/95%) at 37 °C. MTT-based viability assay was conducted as described previously.[26] Optical densities were measured at 570 nm using a BioTek microplate reader. All measurements were carried out in three replicates and the results expressed as a percent of viable cells versus control cells. […] The selectivity index (SI) was calculated as [drawing 30] , in accordance with previously described protocols.[60]

S. cerevisiae ATCC 9763 = test: Antifungal activity: MIC/MFC, disc-diffusion; assay type: cell-based, Saccharomyces cerevisiae
Experimental: (§1) Direct antimicrobial activity was determined against the following standard strains: (1) Gram-positive cocci: methicillin-sensitive Staphylococcus aureus ATCC 6538P (MSSA), methicillin-resistant S. aureus subsp. aureus ATCC 43300 (MRSA), S. epidermidis ATCC 12228, Enterococcus faecium ATCC 6057, E. faecalis ATCC 29212, Bacillus subtilis ATCC 6633; (2) Gram-negative bacteria from Enterobacteriales order: Klebsiella pneumoniae ATCC 13883, Escherichia coli ATCC 25922, Enterobacter cloacae DSM 6234, Proteus mirabilis ATCC 12453, Serratia marcescens ATCC 13880; (3) Gram-negative non-fermentative rods: Acinetobacter baumannii ATCC 19606, Pseudomonas aeruginosa ATCC 27853, Stenotrophomonas maltophilia ATCC 12714, S. maltophilia ATCC 13637, Burkholderia cepacia ATCC 25416, Bordetella bronchiseptica ATCC 4617; (4) yeasts: Candida albicans ATCC 90028, C. krusei ATCC 6258, C. parapsilosis ATCC 22019, C. tropicalis (Castellani) Berkhout ATCC 750, C. tropicalis IBA 171, C. guilliermondii IBA 155, and Saccharomyces cerevisiae ATCC 9763. Moreover, 5 clinical strains of methicillin-resistant S. aureus were also included: NMI 664 K, NMI 1576 K, NMI 1712 K, NMI 1991 K, and NMI 2541 K. All strains were stored at −80 °C. Prior to testing, each bacterial strain was subcultured twice on tryptic soy agar TSA (bioMerieux) medium and yeast strains on Sabouraud dextrose agar (bioMerieux) for 24–48 h at 30 °C to ensure viability. The antimicrobial activity was evaluated as previously described[26] by the disc-diffusion method and the MIC determination assays according to the EUCAST (ref. [71] and [72]) and CLSI (ref. [53] and [73]) recommendations. Assessment of bactericidal (MBC) and fungicidal (MFC) activities was performed according to the CLSI recommendations.[54,74] The following reference agents were used: fluconazole (in the case of fungi), linezolid (for Gram-positive bacteria), and nitrofurantoin (for Gram-negative rods). The new benzosiloxaboroles were dissolved in DMSO (Sigma).

C. tropicalis ATCC 750 = test: Antifungal activity: MIC/MFC, disc-diffusion; assay type: cell-based
Experimental: as §1

C. tropicalis IBA 171 = test: Antifungal activity: MIC/MFC, disc-diffusion; assay type: cell-based
Experimental: as §1

[2] = tested on: C. parapsilosis ATCC 22019; test: Antifungal activity: MIC/MFC, disc-diffusion; assay type: cell-based
Experimental: as §1

[3] = tested on: C. guilliermondii IBA 155; test: Antifungal activity: MIC/MFC, disc-diffusion; assay type: cell-based
Experimental: as §1

C. krusei ATCC 6258 = test: Antifungal activity: MIC/MFC, disc-diffusion; assay type: cell-based
Experimental: as §1, with “The following reference agents were used: fluconazole (in the case of fungi), linezolid (for Gram-positive bacteria), and nitrofurantoin (for Gram-negative rods).” left out

C. albicans ATCC 90028 = test: Antifungal activity: MIC/MFC, disc-diffusion; assay type: cell-based, Candida albicans
Experimental: as §1

P. aeruginosa ATCC 27853 = test: Antibacterial activity: MIC/MBC, MIC with PAβN, disc-diffusion; assay type: cell-based; settings: Pseudomonas aeruginosa, ATCC27853, P. aeruginosa ATCC 27853
Experimental: as §1, with “The following reference agents were used: fluconazole (in the case of fungi), linezolid (for Gram-positive bacteria), and nitrofurantoin (for Gram-negative rods).” left out
(§2) Considering that the MDR efflux pumps often contribute to Gram-negative rod resistance, the MIC values of studied agents, with or without the pump inhibitor, PAβN (20 μg mL^−1) (Sigma), were determined.[75] The MIC was determined using Mueller–Hinton II broth medium (MHB) (Becton Dickinson) by the broth microdilution method, according to the CLSI guideliness.[53] To minimize the influence of PAβN on the destabilization of bacterial cell covers, the tests were conducted in the presence of 1 mM MgSO4 (Sigma).[76] At least a 4-fold reduction in the MIC value after the addition of PAβN was considered significant.[56,77]

E. coli ATCC 25922 = test: as above; assay type: cell-based, Escherichia coli; settings: E. coli ATCC 25922
Experimental: as §1, with “The following reference agents were used: fluconazole (in the case of fungi), linezolid (for Gram-positive bacteria), and nitrofurantoin (for Gram-negative rods).” left out
as §2

A. baumannii ATCC 19606 = test: as above; assay type: cell-based, Acinetobacter baumannii; settings: A. baumannii ATCC 19606
Experimental: as §1, with “The following reference agents were used: fluconazole (in the case of fungi), linezolid (for Gram-positive bacteria), and nitrofurantoin (for Gram-negative rods).” left out
as §2

B. cepacia ATCC 25416 = test: Antibacterial activity: MIC/MBC, disc-diffusion; assay type: cell-based, Burkholderia cepacia; settings: B. cepacia ATCC 25416
Experimental: as §1, with “The following reference agents were used: fluconazole (in the case of fungi), linezolid (for Gram-positive bacteria), and nitrofurantoin (for Gram-negative rods).” left out
as §2

S. marcescens ATCC 13880 = test: Antibacterial activity: MIC/MBC, MIC with PAβN, disc-diffusion; assay type: cell-based, Serratia marcescens; settings: S. marcescens ATCC 13880
Experimental: as §1, with “The following reference agents were used: fluconazole (in the case of fungi), linezolid (for Gram-positive bacteria), and nitrofurantoin (for Gram-negative rods).” left out
as §2

K. pneumoniae ATCC 13883 = test: as above; assay type: cell-based, Klebsiella pneumoniae; settings: K. pneumoniae ATCC 13883
Experimental: as §1, with “The following reference agents were used: fluconazole (in the case of fungi), linezolid (for Gram-positive bacteria), and nitrofurantoin (for Gram-negative rods).” left out
as §2

P. mirabilis ATCC 12453 = test: as above; assay type: cell-based, Proteus mirabilis; settings: P. mirabilis ATCC 12453
Experimental: as §1, with “The following reference agents were used: fluconazole (in the case of fungi), linezolid (for Gram-positive bacteria), and nitrofurantoin (for Gram-negative rods).” left out
as §2

[4] = tested on: S. maltophilia ATCC 12714; test: as above; assay type: cell-based, Stenotrophomonas maltophilia; settings: Stenotrophomonas maltophilia, ATCC12714, S. maltophilia ATCC 12714
Experimental: as §1, with “The following reference agents were used: fluconazole (in the case of fungi), linezolid (for Gram-positive bacteria), and nitrofurantoin (for Gram-negative rods).” left out
as §2

[5] = tested on: S. maltophilia ATCC 13637; test: as above; assay type: cell-based, Stenotrophomonas maltophilia; settings: Stenotrophomonas maltophilia, ATCC13637, S. maltophilia ATCC 13637
Experimental: as §1, with “The following reference agents were used: fluconazole (in the case of fungi), linezolid (for Gram-positive bacteria), and nitrofurantoin (for Gram-negative rods).” left out
as §2

E. cloacae DSM 6234 = test: as above; assay type: cell-based, Enterobacter cloacae; settings: E. cloacae DSM 6234
Experimental: as §1, with “The following reference agents were used: fluconazole (in the case of fungi), linezolid (for Gram-positive bacteria), and nitrofurantoin (for Gram-negative rods).” left out
as §2

[6] = tested on: B. bronchiseptica ATCC 4617; test: Antibacterial activity: MIC/MBC, disc-diffusion; assay type: cell-based, Bordetella bronchiseptica; settings: Bordetella bronchiseptica, ATCC4617, B. bronchiseptica ATCC 4617
Experimental: as §1, with “The following reference agents were used: fluconazole (in the case of fungi), linezolid (for Gram-positive bacteria), and nitrofurantoin (for Gram-negative rods).” left out
as §2

[7] = (-) = zone not observed, paper discs 9 mm

## N.N.[Cl][Pt][Cl] [Cisplatin, reference compound]
[1]
  IC50: 1.9 µg/mL

## OC(Cn1cncn1)(Cn1cncn1)c1ccc(F)cc1F [FL, fluconazole, reference compound]
S. cerevisiae ATCC 9763; S. cerevisiae ATCC 9763, (-) = zone not observed, paper discs 9 mm
  diameter of inhibition zone: 12 mm
S. cerevisiae ATCC 9763; Saccharomyces cerevisiae, ATCC9763, read-out: MIC
  MIC: 16 µg/mL (≈ 52.2 µM)
C. tropicalis ATCC 750; C. tropicalis ATCC 750, (-) = zone not observed, paper discs 9 mm
  diameter of inhibition zone: 40 mm
C. tropicalis ATCC 750; Candida tropicalis, ATCC750, read-out: MIC
  MIC: 0.38 µg/mL (≈ 1.24 µM)
C. tropicalis IBA 171; C. tropicalis IBA 171, (-) = zone not observed, paper discs 9 mm
  diameter of inhibition zone: 39 mm
C. tropicalis IBA 171; Candida tropicalis, IBA171, read-out: MIC
  MIC: 0.38 µg/mL (≈ 1.24 µM)
[2]; C. parapsilosis ATCC 22019, (-) = zone not observed, paper discs 9 mm
  diameter of inhibition zone: 32 mm
[2]; Lodderomyces parapsilosis, ATCC22019, read-out: MIC
  MIC: 2 µg/mL (≈ 6.53 µM)
[3]; C. guilliermondii IBA 155, (-) = zone not observed, paper discs 9 mm
  diameter of inhibition zone: 40 mm
[3]; Meyerozyma guilliermondii, IBA155, read-out: MIC
  MIC: 0.75 µg/mL (≈ 2.45 µM)
C. krusei ATCC 6258; C. krusei ATCC 6258, (-) = zone not observed, paper discs 9 mm
  diameter of inhibition zone: 16 mm
C. krusei ATCC 6258; Pichia kudriavzevii, ATCC6258, read-out: MIC
  MIC: 64 µg/mL (≈ 209 µM)
C. albicans ATCC 90028; C. albicans ATCC 90028, (-) = zone not observed, paper discs 9 mm
  diameter of inhibition zone: 43 mm
C. albicans ATCC 90028; Candida albicans, ATCC90028, read-out: MIC
  MIC: 1 µg/mL (≈ 3.27 µM)

## O=C1CN(/N=C/c2ccc([N+](=O)[O-])o2)C(=O)N1 [NF, nitrofurantoin, reference compound]
P. aeruginosa ATCC 27853
  MBC: > 128 µg/mL
P. aeruginosa ATCC 27853; read-out: MIC
  MIC: > 128 µg/mL
E. coli ATCC 25922; [7]
  diameter of inhibition zone: 24 mm
E. coli ATCC 25922; Escherichia coli, ATCC25922
  MBC: 8 µg/mL (≈ 33.6 µM)
E. coli ATCC 25922; Escherichia coli, ATCC25922, read-out: MIC
  MIC: 8 µg/mL (≈ 33.6 µM)
A. baumannii ATCC 19606; [7]
  diameter of inhibition zone: 9 mm
A. baumannii ATCC 19606; Acinetobacter baumannii, ATCC19606
  MBC: 128 µg/mL (≈ 537 µM)
A. baumannii ATCC 19606; Acinetobacter baumannii, ATCC19606, read-out: MIC
  MIC: 64 µg/mL (≈ 269 µM)
B. cepacia ATCC 25416; [7]
  diameter of inhibition zone: 12 mm
B. cepacia ATCC 25416; Burkholderia cepacia, ATCC25416
  MBC: 32 µg/mL (≈ 134 µM)
B. cepacia ATCC 25416; Burkholderia cepacia, ATCC25416, read-out: MIC
  MIC: 32 µg/mL (≈ 134 µM)
S. marcescens ATCC 13880; [7]
  diameter of inhibition zone: 12 mm
S. marcescens ATCC 13880; Serratia marcescens, ATCC13880
  MBC: > 128 µg/mL
S. marcescens ATCC 13880; Serratia marcescens, ATCC13880, read-out: MIC
  MIC: 128 µg/mL (≈ 537 µM)
K. pneumoniae ATCC 13883; [7]
  diameter of inhibition zone: 23 mm
K. pneumoniae ATCC 13883; Klebsiella pneumoniae, ATCC13883
  MBC: 32 µg/mL (≈ 134 µM)
K. pneumoniae ATCC 13883; Klebsiella pneumoniae, ATCC13883, read-out: MIC
  MIC: 32 µg/mL (≈ 134 µM)
P. mirabilis ATCC 12453; [7]
  diameter of inhibition zone: 9 mm
P. mirabilis ATCC 12453; Proteus mirabilis, ATCC12453
  MBC: > 128 µg/mL
P. mirabilis ATCC 12453; Proteus mirabilis, ATCC12453, read-out: MIC
  MIC: 128 µg/mL (≈ 537 µM)
[4]
  MBC: > 128 µg/mL
[4]; read-out: MIC
  MIC: 128 µg/mL (≈ 537 µM)
[5]
  MBC: > 128 µg/mL
[5]; read-out: MIC
  MIC: 128 µg/mL (≈ 537 µM)
E. cloacae DSM 6234; [7]
  diameter of inhibition zone: 17 mm
E. cloacae DSM 6234; Enterobacter cloacae, DSM6234
  MBC: 32 µg/mL (≈ 134 µM)
E. cloacae DSM 6234; Enterobacter cloacae, DSM6234, read-out: MIC
  MIC: 32 µg/mL (≈ 134 µM)
[6]
  MBC: 128 µg/mL (≈ 537 µM)
[6]; read-out: MIC
  MIC: 64 µg/mL (≈ 269 µM)
